Where two headings read alike, the source gives them in different places.
Tests used:
AURKA = target: T1, AURKA (Homo sapiens, UniProt O14965); assay type: cell-based
T1 construct: endogenous in cells; host or cells: Jurkat cells
T1 sequence (O14965 1-403): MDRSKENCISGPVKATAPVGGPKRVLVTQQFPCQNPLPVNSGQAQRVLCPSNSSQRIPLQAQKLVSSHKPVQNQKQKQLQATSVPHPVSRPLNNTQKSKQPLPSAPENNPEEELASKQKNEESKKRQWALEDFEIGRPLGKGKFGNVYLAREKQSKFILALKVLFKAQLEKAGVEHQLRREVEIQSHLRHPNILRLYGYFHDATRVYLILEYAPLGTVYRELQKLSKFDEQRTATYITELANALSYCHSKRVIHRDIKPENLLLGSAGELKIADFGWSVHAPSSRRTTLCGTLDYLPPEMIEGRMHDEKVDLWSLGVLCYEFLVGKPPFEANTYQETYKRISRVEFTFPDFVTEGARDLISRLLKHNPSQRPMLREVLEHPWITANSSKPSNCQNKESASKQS
Summary of the method: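 Jurkat cells seeded at 1×10^6 cells/500 µL and treated with compound; lysates run on SDS-PAGE, blotted to nitrocellulose and probed overnight at 4°C for AURKA. Chemiluminescent or fluorescent band intensity fitted to a curve to give DC50 for protein degradation.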

H82 cells = experiment: cells; assay type: cell-based; details: Homo sapiens
Procedure: CellTiter-Glo (CTG) is a rapid cell viability test method based on ATP detection. […] Adenosine triphosphate (ATP) participates in various enzymatic reactions in organisms and is an indicator of living cell metabolism. Its content directly reflects the number of living cells and cell status. During the experiment, equal volume of CTG reagent is added to the cultured cells to measure the luminescence value. The chemiluminescent signal value is proportional to the amount of ATP, thus reflecting the number of viable cells. Therefore, cell viability can be obtained by detecting the ATP content. Compounds that affect cell viability will inhibit cell viability in a concentration-dependent manner, allowing a curve to be fitted to obtain the IC50 value.
The experimental procedure is as follows: • 11. Place the cell suspension in a 15 mL centrifuge tube, centrifuge at 1000 rpm for 5 min at room temperature, discard the supernatant, and collect the cell pellet. • 12. Resuspend the cell pellet with preheated complete cell culture medium (RPMI1640+10%FBS+1%PS), and use a Countess® automated cell counter to detect cell viability and density. […] Transfer the compound solution to a 96-well plate seeded with cells (final concentration of DMSO 0.1%), and place in a cell incubator at 37°C, 5% CO2 for 6 days. • 15. […] Protect from light during the whole process. Perform optical signal readings using a SpectraMax i3x reader. • 16. Data analysis: Remaining activity (%) = 100% * (1 - ((LumDMSO - Lummedium) - Lumsample) / (LumDMSO - LumPBS/medium)). Use GraphPad Prism 9.0 software to draw an S-shaped dose-survival rate curve and calculate the IC50 value using a nonlinear regression model.

[1] = 100 nM compound, Jurkat cells, 24 h, Table 2
[2] = 1 µM compound, Jurkat cells, 24 h, Table 2
[3] = NCI-H82, H82 cells, 4000 cells/well, CellTiter-Glo, read-out: IC50 in H82 Cells
[4] = NCI-H82, read-out: IC50 in H82 Cells

| Structure (SMILES) | Percentage of AURKA Degradation Induced by 100 nM Compound in Jurkat Cells (AURKA; [1]) | Percentage of AURKA Degradation Induced by 1 µM Compound in Jurkat Cells (AURKA; [2]) | IC50 (H82 cells; [3]) [µM] | Percentage of AURKA Degradation Induced by 100 nM Compound in Jurkat Cells (AURKA) | Percentage of AURKA Degradation Induced by 1 µM Compound in Jurkat Cells (AURKA) | IC50 (H82 cells; [4]) [µM] |
| --- | --- | --- | --- | --- | --- | --- |
| O=C1CCN(c2ccnc(N3CCN(CC#Cc4cccc(Nc5ncc6c(n5)-c5ccc(Cl)cc5C(c5c(F)cccc5F)=NC6)c4)CC3)c2)C(=O)N1 [Compound A130] | ++ (30% < Degradation ≤ 70%) | ++ (30% < Degradation ≤ 70%) | < 1 | – | – | – |
| O=C1CCN(c2cncc(N3CCN(CC#Cc4cccc(Nc5ncc6c(n5)-c5ccc(Cl)cc5C(c5c(F)cccc5F)=NC6)c4)CC3)c2)C(=O)N1 [Compound A131] | +++ (Degradation > 70%) | +++ (Degradation > 70%) | < 1 | – | – | – |
| O=C1CCN(c2ccc(N3CCC(N4CCN(c5ccc(Nc6ncc7c(n6)-c6ccc(Cl)cc6C(c6c(F)cccc6F)=NC7)cc5)C(=O)C4)CC3)nc2)C(=O)N1 [Compound A132] | – | – | – | +++ (key: +: Degradation ≤ 30%; ++: 30% < Degradation ≤ 70%; +++: Degradation > 70%) | +++ (key: +: Degradation ≤ 30%; ++: 30% < Degradation ≤ 70%; +++: Degradation > 70%) | < 1 |
| O=C1CCN(c2cccc(N3CC(CC#Cc4cccc(Nc5ncc6c(n5)-c5ccc(Cl)cc5C(c5c(F)cccc5F)=NC6)c4)C3)c2)C(=O)N1 [Compound A133] | ++ (30% < Degradation ≤ 70%) | +++ (Degradation > 70%) | < 1 | – | – | – |
| O=C1CCN(c2cnc(N3CCN(CCNC(=O)c4ccc(Nc5ncc6c(n5)-c5ccc(C7CC7)cc5C(c5c(F)cccc5F)=NC6)cc4)CC3)s2)C(=O)N1 [Compound A134] | +++ (Degradation > 70%) | ++ (30% < Degradation ≤ 70%) | < 1 | – | – | – |
| CN(CCN1CCN(c2ncc(N3CCC(=O)NC3=O)s2)CC1)C(=O)c1ccc(Nc2ncc3c(n2)-c2ccc(C4CC4)cc2C(c2c(F)cccc2F)=NC3)cc1 [Compound A135] | +++ (Degradation > 70%) | ++ (30% < Degradation ≤ 70%) | < 1 | – | – | – |
| CN(CCN1CCN(c2ccc(N3CCC(=O)NC3=O)cc2)CC1)C(=O)c1ccc(Nc2ncc3c(n2)-c2ccc(C4CC4)cc2C(c2c(F)cccc2F)=NC3)cc1 [Compound A136] | +++ (Degradation > 70%) | +++ (Degradation > 70%) | < 1 | – | – | – |
| COc1ccccc1C1=NCc2cnc(Nc3ccc(C(=O)NC4CC5(CCN(c6ccc(N7CCC(=O)NC7=O)cn6)CC5)C4)cc3)nc2-c2ccncc21 [Compound A137] | +++ (Degradation > 70%) | +++ (Degradation > 70%) | < 1 | – | – | – |
| O=C1CCN(c2ccc(N3CCC4(CC3)CC(NC(=O)c3ccc(Nc5ncc6c(n5)-c5ccncc5C(c5ccccc5F)=NC6)cc3)C4)nc2)C(=O)N1 [Compound A138] | +++ (Degradation > 70%) | +++ (Degradation > 70%) | 1 to 10 | – | – | – |
| O=C1CCN(c2cccc(N3CC(CN4CCN(c5cccc(Nc6ncc7c(n6)-c6ccc(Cl)cc6C(c6c(F)cccc6F)=NC7)c5)CC4)C3)c2)C(=O)N1 [Compound A140] | +++ (Degradation > 70%) | +++ (Degradation > 70%) | < 1 | – | – | – |
| O=C1CCN(c2cccc(N3CCN(CC4CN(c5cccc(Nc6ncc7c(n6)-c6ccc(Cl)cc6C(c6c(F)cccc6F)=NC7)c5)C4)CC3)c2)C(=O)N1 [Compound A141] | +++ (Degradation > 70%) | +++ (Degradation > 70%) | < 1 | – | – | – |
| O=C1CCN(c2ccc(N3CCC4(CC3)CC(NC(=O)c3ccc(Nc5ncc6c(n5)-c5ccc(C7CC7)cc5C(c5ccccc5Cl)=NC6)cc3)C4)nc2)C(=O)N1 [Compound A142] | +++ (Degradation > 70%) | +++ (Degradation > 70%) | < 1 | – | – | – |
| O=C1CCN(c2cccc(N3CCC(CN4CC(c5cccc(Nc6ncc7c(n6)-c6ccc(Cl)cc6C(c6c(F)cccc6F)=NC7)c5)C4)CC3)c2)C(=O)N1 [Compound A143] | +++ (Degradation > 70%) | +++ (Degradation > 70%) | < 1 | – | – | – |
| O=C1CCN(c2cccc(C3CCN(CCOc4cccc(Nc5ncc6c(n5)-c5ccc(Cl)cc5C(c5c(F)cccc5F)=NC6)c4)C3)c2)C(=O)N1 (stereo not drawn) [Compound A144] | + (Degradation ≤ 30%) | + (Degradation ≤ 30%) | < 1 | – | – | – |
| O=C1CCN(c2cccc(N3CCN(Cc4cccc(Nc5ncc6c(n5)-c5ccc(Cl)cc5C(c5c(F)cccc5F)=NC6)c4)CC3)c2)C(=O)N1 [Compound A146] | ++ (30% < Degradation ≤ 70%) | + (Degradation ≤ 30%) | < 1 | – | – | – |
| O=C1CCN(c2cccc(N3CCN(CCc4cccc(Nc5ncc6c(n5)-c5ccc(Cl)cc5C(c5c(F)cccc5F)=NC6)c4)CC3)c2)C(=O)N1 [Compound A147] | +++ (Degradation > 70%) | +++ (Degradation > 70%) | < 1 | – | – | – |
| O=C1CCN(c2cccc(N3CCN(CCOc4cccc(Nc5ncc6c(n5)-c5ccc(C7CC7)cc5C(c5c(F)cccc5F)=NC6)c4)CC3)c2)C(=O)N1 [Compound A148] | +++ (Degradation > 70%) | +++ (Degradation > 70%) | < 1 | – | – | – |
| Cn1c(CN2CCN(c3ncc(N4CCC(=O)NC4=O)s3)CC2)cnc1-c1ccc(Nc2ncc3c(n2)-c2ccc(Cl)cc2C(c2c(F)cccc2F)=NC3)cc1 [Compound A149] | +++ (Degradation > 70%) | +++ (Degradation > 70%) | < 1 | – | – | – |
| O=C1CCN(c2cccc(N3CCC(N4CC(c5cccc(Nc6ncc7c(n6)-c6ccc(Cl)cc6C(c6c(F)cccc6F)=NC7)c5)C4)CC3)c2)C(=O)N1 [Compound A151] | ++ (30% < Degradation ≤ 70%) | + (Degradation ≤ 30%) | < 1 | – | – | – |
| Cc1c(N2CCN(CCc3cccc(Nc4ncc5c(n4)-c4ccc(Cl)cc4C(c4c(F)cccc4F)=NC5)c3)CC2)cccc1N1CCC(=O)NC1=O [Compound A155] | ++ (30% < Degradation ≤ 70%) | ++ (30% < Degradation ≤ 70%) | < 1 | – | – | – |
| Cc1c(N2CC(C#Cc3cccc(Nc4ncc5c(n4)-c4ccc(Cl)cc4C(c4c(F)cccc4F)=NC5)c3)C2)cccc1N1CCC(=O)NC1=O [Compound A156] | – | – | – | + (key: +: Degradation ≤ 30%; ++: 30% < Degradation ≤ 70%; +++: Degradation > 70%) | + (key: +: Degradation ≤ 30%; ++: 30% < Degradation ≤ 70%; +++: Degradation > 70%) | 1 to 10 |
| O=C1CCN(c2cnc(N3CCN(CCN4Cc5cc(Nc6ncc7c(n6)-c6ccc(Cl)cc6C(c6c(F)cccc6F)=NC7)ccc5C4=O)CC3)s2)C(=O)N1 [Compound A157] | ++ (30% < Degradation ≤ 70%) | + (Degradation ≤ 30%) | < 1 | – | – | – |
| O=C1CCN(c2ccc(N3CCN(CCN4Cc5cc(Nc6ncc7c(n6)-c6ccc(Cl)cc6C(c6c(F)cccc6F)=NC7)ccc5C4=O)CC3)cc2)C(=O)N1 [Compound A158] | ++ (30% < Degradation ≤ 70%) | + (Degradation ≤ 30%) | < 1 | – | – | – |

From patent EP4818168A1, “FUSED RING COMPOUND, PHARMACEUTICAL COMPOSITION THEREOF AND USE THEREOF” (priority 2023, dated 2025)
